The results in this text go back to ChEMBL document CHEMBL4665876, “Protection of all cleavable sites of DNA with the multiple CGCG or continuous CGG sites from the restriction enzyme, indicative of simultaneous binding of small ligands” (Bioorg Med Chem, 2020).

Structures are written as SMILES. Calls of active or inactive are those of the source. No cut-off for these calls is given here.

Type in all cases: nucleic-acid assay
Assay [1] concerns Nucleic Acid. The assay can be described thus: Binding affinity to CGCG site of DNA (unknown origin) at 10 uM by PAGE analysis.
The test system of assay [2] is Nucleic Acid. The assay can be described thus: Binding affinity to d(CGG)16 of DNA (unknown origin) assessed as inhibition of Fnu4HI mediated DNA hydrolysis at 10 uM preincubated for 14 hrs followed by Fnu4HI addition and measured after 60 mins by SYBR staining-based PAGE analysis. The settings on record: Homo sapiens.
Assay [3] deals with Nucleic Acid. The experiment in a line: Binding affinity to GC5(5) of DNA (unknown origin) assessed as inhibition of ACCII mediated DNA hydrolysis at 1 uM preincubated for 14 hrs followed by ACCII addition and measured after 120 mins by SYBR staining-based PAGE analysis. The settings on record: Homo sapiens, time 16.0 hrs.
The subject of assay [4] is Nucleic Acid. The assay can be described thus: Binding affinity to d(CGG)10 of DNA (unknown origin) assessed as inhibition of Fnu4HI mediated DNA hydrolysis at 25 uM preincubated for 14 hrs followed by Fnu4HI addition and measured after 60 mins by SYBR staining-based PAGE analysis. The settings on record: Homo sapiens.
The test system of assay [5] is Nucleic Acid. The experiment in a line: Binding affinity to GC5(2) of DNA (unknown origin) assessed as inhibition of ACCII mediated DNA hydrolysis at 10 to 50 uM preincubated for 14 hrs followed by ACCII addition and measured after 120 mins by SYBR staining-based PAGE analysis. The following applies: Homo sapiens; dose microM 10-50, time 14.0 hrs.
Assay [6] has as its system Nucleic Acid. The experiment in a line: Binding affinity to d(CGG)16 of DNA (unknown origin) assessed as inhibition of Fnu4HI mediated DNA hydrolysis at 25 uM preincubated for 14 hrs followed by Fnu4HI addition and measured after 60 mins by SYBR staining-based PAGE analysis. The settings on record: Homo sapiens.
Assay [7] has as its system Nucleic Acid. The experiment in a line: Binding affinity to GC2(5) site of DNA (unknown origin) assessed as inhibition of ACCII mediated DNA hydrolysis at 50 uM preincubated for 14 hrs followed by ACCII addition and measured after 120 mins by SYBR staining-based PAGE analysis. The settings on record: Homo sapiens.
The subject of assay [8] is Nucleic Acid. The assay can be described thus: Binding affinity to GC1 of DNA (unknown origin) assessed as inhibition of ACCII mediated DNA hydrolysis at 50 uM preincubated for 14 hrs followed by ACCII addition and measured after 120 mins by SYBR staining-based PAGE analysis. The settings on record: Homo sapiens.
The subject of assay [9] is Nucleic Acid. The assay can be described thus: Binding affinity to GC5(5) of DNA (unknown origin) assessed as inhibition of ACCII mediated DNA hydrolysis at 10 to 50 uM preincubated for 14 hrs followed by ACCII addition and measured after 120 mins by SYBR staining-based PAGE analysis. The settings on record: Homo sapiens; dose microM 10-50, time 14.0 hrs.
The subject of assay [10] is Nucleic Acid. The assay can be described thus: Binding affinity to d(CGG) of DNA (unknown origin) assessed as inhibition of Fnu4HI mediated DNA hydrolysis preincubated for 14 hrs followed by Fnu4HI addition and measured after 60 mins by SYBR staining-based PAGE analysis. The following applies: Homo sapiens.

On to `CCC[C@@H]1C(=O)c2c(cc3cc(O)cc(O)c3c2O)C[C@H]1C`, for which the outcome with Nucleic Acid [1] was inactive.

For `C[C@H]1CC(=O)c2c(cc3cc(OCC(=O)NO)cc(O)c3c2O)C1`, in the assay on Nucleic Acid [2], the result was Active. Also, in the assay with Nucleic Acid [1], the result was inactive.

As to `CCC[C@@H]1C(=O)c2c(cc3cc(OCCOCCOCC(=O)O)cc(O)c3c2O)C[C@H]1C`, the outcome in the assay with Nucleic Acid [3] was Active.

For the compound `C[C@H]1CC(=O)c2c(cc3cc(OCCOCC(=O)NO)cc(O)c3c2O)C1`, the outcome with Nucleic Acid [4], in the assay on Nucleic Acid [5] and in the assay with Nucleic Acid [6] was Active.

As for `C[C@H]1CC(=O)c2c(cc3cc(O)cc(O)c3c2O)C1`, the outcome in the assay with Nucleic Acid [1] was inactive.

`O=C(COCCOc1cc(O)c2c(O)c3c(cc2c1)CCCC3=O)NO`: in the assay on Nucleic Acid [5], the result was Active.

`CCC[C@@H]1C(=O)c2c(cc3cc(OCCOCCOCC(=O)NO)cc(O)c3c2O)C[C@H]1C`: the outcome in the assay with Nucleic Acid [7], in the assay with Nucleic Acid [9] and in the assay with Nucleic Acid [1] was Active. Also, in the assay on Nucleic Acid [8], the result was inactive.

`O=C1CCCc2cc3cc(O)cc(O)c3c(O)c21`: the result in the assay on Nucleic Acid [1] was inactive.

With `C[C@H]1CC(=O)c2c(cc3cc(OCCOCCOCC(=O)NO)cc(O)c3c2O)C1`, the result in the assay with Nucleic Acid [3] and in the assay with Nucleic Acid [1] was Active. For the same compound, the outcome with Nucleic Acid [10] was inactive.

As for `CCC[C@@H]1C(=O)c2c(cc3cc(OCCOCCOCCOC)cc(O)c3c2O)C[C@H]1C`, the outcome with Nucleic Acid [3] was inactive.
